Our source for the EC50 values is patent US20260265233A1, “BENZOTHIOPHENE DERIVATIVES AS RXFP1 AGONISTS” (BRISTOL-MYERS SQUIBB COMPANY, priority 2021, published 2026).

By EC50 is commonly meant the concentration needed to bring the measured effect to its halfway point. Low values mean greater potency, high ones weaker potency.

This test concerns the target T1, human RXFP1 (Homo sapiens, UniProt Q9HBX9).
T1 construct: expressed in transfected cells
T1 sequence (Q9HBX9 1-757): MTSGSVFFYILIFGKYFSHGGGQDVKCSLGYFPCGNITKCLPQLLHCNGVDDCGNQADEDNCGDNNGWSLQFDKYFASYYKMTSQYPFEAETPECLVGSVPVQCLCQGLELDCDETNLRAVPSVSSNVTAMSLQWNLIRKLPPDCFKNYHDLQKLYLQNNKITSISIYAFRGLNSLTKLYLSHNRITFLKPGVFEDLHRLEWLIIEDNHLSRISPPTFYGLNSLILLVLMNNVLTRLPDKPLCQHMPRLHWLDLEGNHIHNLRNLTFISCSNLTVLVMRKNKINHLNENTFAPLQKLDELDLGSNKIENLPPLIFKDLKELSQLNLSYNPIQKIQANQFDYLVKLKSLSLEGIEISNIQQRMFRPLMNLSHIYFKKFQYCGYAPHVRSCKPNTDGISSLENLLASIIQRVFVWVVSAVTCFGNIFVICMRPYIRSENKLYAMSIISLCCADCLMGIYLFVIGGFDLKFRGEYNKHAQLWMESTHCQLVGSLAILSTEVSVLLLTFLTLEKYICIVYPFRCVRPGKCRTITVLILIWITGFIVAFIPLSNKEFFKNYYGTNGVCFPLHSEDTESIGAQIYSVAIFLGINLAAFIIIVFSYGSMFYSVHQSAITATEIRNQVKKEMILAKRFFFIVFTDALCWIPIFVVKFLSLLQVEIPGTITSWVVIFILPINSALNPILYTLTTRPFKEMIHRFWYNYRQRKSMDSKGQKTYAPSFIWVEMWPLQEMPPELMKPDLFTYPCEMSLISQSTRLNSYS
As to the kind of experiment: hRXFP1 HEK293 cAMP assay (HTRF). Format: cell-based. The note with it: HEK293 cells stably expressing human RXFP1; 30 min at rt; intracellular cAMP by HTRF. The procedure:
RXFP1 Cyclic Adenosine Monophosphate (cAMP) Assays. Human embryonic kidney cells 293 (HEK293) cells and HEK293 cells stably expressing human RXFP1, were cultured in MEM medium supplemented with 10% qualified FBS, and 300 μg/ml hygromycin (Life Technologies). Cells were dissociated and suspended in assay buffer. The assay buffer was HBSS buffer (with calcium and magnesium) containing 20 mM HEPES, 0.05% BSA, and 0.5 mM IBMX. Cells (3000 cells per well, except 1500 cell per well for HEK293 cells stably expressing human RXFP1) were added to 384-well Proxiplates (Perkin-Elmer). Cells were immediately treated with test compounds in DMSO (2% final) at final concentrations in the range of 0.010 nM to 50 μM. Cells were incubated for 30 min at rt. The level of intracellular cAMP was determined using the HTRF HiRange cAMP assay reagent kit (Cisbio) according to manufacturer's instructions. Solutions of cryptate conjugated anti-cAMP and d2 fluorophore-labelled cAMP were made in a supplied lysis buffer separately. Upon completion of the reaction, the cells were lysed with equal volume of the d2-cAMP solution and anti-cAMP solution. After a 1 h rt incubation, time-resolved fluorescence intensity was measured using the Envision (Perkin-Elmer) at 400 nm excitation and dual emission at 590 nm and 665 nm. A calibration curve was constructed with an external cAMP standard at concentrations ranging from 2.7 μM to 0.1 pM by plotting the fluorescent intensity ratio from 665 nm emission to the intensity from the 590 nm emission against cAMP concentrations. The potency and activity of a compound to […] cAMP production was then determined by fitting to a 4-parametric logistic equation from a plot of cAMP level versus compound concentrations.
The examples disclosed below were tested in the human RXFP1 (hRXFP1) HEK293 cAMP assay described above and found to have agonist activity.

For `COCCNC(=O)c1ccc(OC)c(C(=O)Nc2c(C(=O)Nc3ccc(F)c(C(F)(F)F)c3)sc3cc(C(F)(F)F)ccc23)c1` [Example 218, N3-(2-((4-fluoro-3-(trifluoromethyl)phenyl)carbamoyl)-6-(trifluoromethyl)benzo[b]thiophen-3-yl)-4-methoxy-N1-(2-methoxyethyl) isophthalamide], a half-maximal response (EC50) required 1130 nM.

`COc1cc(C)c(C(=O)N2CC3(C2)CS(=O)(=O)C3)cc1C(=O)Nc1c(C(=O)Nc2ccc(F)c(C(F)(F)F)c2)sc2cc(C(F)(F)F)ccc12` [Example 226, 3-(5-(2,2-dioxido-2-thia-6-azaspiro[3.3]heptane-6-carbonyl)-2-methoxy-4-methylbenzamido)-N-(4-fluoro-3-(trifluoromethyl)phenyl)-6-(trifluoromethyl) benzo[b] thiophene-2-carboxamide] returned an EC50 of 1760 nM.

Regarding `COc1ccc(C2CC2C(=O)O)cc1C(=O)Nc1c(C(=O)Nc2ccc(F)c(C(F)(F)F)c2)sc2cc(C(F)(F)F)ccc12` (single isomer, unassigned) [Example 48, 2-(3-((2-((4-fluoro-3-(trifluoromethyl)phenyl)carbamoyl)-6-(trifluoromethyl)benzo[b]thiophen-3-yl)carbamoyl)-4-methoxyphenyl) cyclopropane-1-carboxylic acid], the EC50 amounted to 58.4 nM.

`COc1ccc(-c2cncc(NS(C)(=O)=O)c2)cc1C(=O)Nc1c(C(=O)Nc2ccc(F)c(C(F)(F)F)c2)sc2cc(C(F)(F)F)ccc12` [Example 117, N-(4-fluoro-3-(trifluoromethyl)phenyl)-3-(2-methoxy-5-(5-(methyl-sulfonamido)pyridin-3-yl)benzamido)-6-(trifluoromethyl) benzo[b] thiophene-2-carboxamide] came in with an EC50 of 131 nM.

Consider `COc1ccc(C2=NOC3(CCN(C(=O)CO)C3)C2)cc1C(=O)Nc1c(C(=O)Nc2ccc(F)c(C(F)(F)F)c2)sc2cc(C(F)(F)F)ccc12` (centres unmarked) [Example 278, N-[4-fluoro-3-(trifluoromethyl)phenyl]-3-{5-[7-(2-hydroxyacetyl)-1-oxa-2,7-diazaspiro[4.4]non-2-en-3-yl]-2-methoxy-benzamido}-6-(trifluoromethyl)-1-benzothiophene-2-carboxamide], for which the EC50 amounted to 408 nM.

In the case of `COc1ccc(C2CCCN(CC(N)=O)CC2)cc1C(=O)Nc1c(C(=O)Nc2ccc(F)c(C(F)(F)F)c2)sc2cc(C(F)(F)F)ccc12` (single isomer, unassigned) [Example 73, 3-(5-(1-(2-amino-2-oxoethyl)azepan-4-yl)-2-methoxy-benzamido)-N-(4-fluoro-3-(trifluoromethyl)phenyl)-6-(trifluoromethyl) benzo[b] thiophene-2-carboxamide], the EC50 turned out to be 1040 nM.

Molecule “2-(3′-((2-((4-fluoro-3-(trifluoromethyl) phenyl) carbamoyl)-6-(trifluoromethyl) benzo[b]thiophen-3-yl) carbamoyl)-4′-methoxy-[1, 1′-biphenyl]-3-yl)-2-(tetrahydro-2H-pyran-4-carboxamido) acetic acid [Example 26]” showed a concentration for a half-maximal effect (EC50) of 153 nM.

In the case of “(R)-6-chloro- N-(4-fluoro-3- (trifluoromethyl) phenyl)-3-(5- (2- (hydroxymethyl) morpholine- 4-carbonyl)-2- methoxy- benzamido) thieno[3, 2-c]pyridine-2- carboxamide [Example 239]”, the 50% effective concentration (EC50) came out at 2100 nM.

`COC(=O)C1CC(c2ccc(OC)c(C(=O)Nc3c(C(=O)Nc4ccc(F)c(C(F)(F)F)c4)sc4cc(C(F)(F)F)ccc34)c2)=NO1` (centres unmarked) [Example 57, methyl 3-(3-((2-((4-fluoro-3-(trifluoromethyl)phenyl)carbamoyl)-6-(trifluoromethyl)benzo[b]thiophen-3-yl)carbamoyl)-4-methoxyphenyl)-4,5-dihydroisoxazole-5-carboxylate] gave a concentration for a half-maximal effect (EC50) of 636 nM.

With `COc1ccc(C2CCCN(CCS(C)(=O)=O)CC2)cc1C(=O)Nc1c(C(=O)Nc2ccc(F)c(C(F)(F)F)c2)sc2cc(C(F)(F)F)ccc12` (centres unmarked) [Example 71, N-(4-fluoro-3-(trifluoromethyl)phenyl)-3-(2-methoxy-5-(1-(2-(methylsulfonyl)ethyl)azepan-4-yl)benzamido)-6-(trifluoromethyl) benzo[b] thiophene-2-carboxamide], a half-maximal response (EC50) required 2710 nM.

On to `COc1ccc(C2=NOC3CN(CC(C)(C)O)CC23)cc1C(=O)Nc1c(C(=O)Nc2ccc(F)c(C(F)(F)F)c2)sc2cc(C(F)(F)F)ccc12` (single isomer, unassigned) [Example 54, N-(4-fluoro-3-(trifluoromethyl)phenyl)-3-(5-(5-(2-hydroxy-2-methylpropyl)-3a, 5,6,6a-tetrahydro-4H-pyrrolo[3,4-d]isoxazol-3-yl)-2-methoxybenzamido)-6-(trifluoromethyl)benzo[b]thiophene-2-carboxamide], for which the midpoint of the response, the EC50, lay at 306 nM.

For `COc1ccc(C2=NOC3CC(C(C)(C)O)CC23)cc1C(=O)Nc1c(C(=O)Nc2ccc(F)c(C(F)(F)F)c2)sc2cc(C(F)(F)F)ccc12` (single isomer, unassigned) [Example 56, N-(4-fluoro-3-(trifluoromethyl)phenyl)-3-(5-(5-(2-hydroxypropan-2-yl)-3a, 5,6,6a-tetrahydro-4H-cyclopenta[d]isoxazol-3-yl)-2-methoxybenzamido)-6-(trifluoromethyl)benzo[b]thiophene-2-carboxamide], it took 9.5 nM to reach a half-maximal effect (EC50).

Take `COc1ccc(C2CC2C(=O)NC2CCOCC2)cc1C(=O)Nc1c(C(=O)Nc2ccc(F)c(C(F)(F)F)c2)sc2cc(C(F)(F)F)ccc12` (single isomer, unassigned) [Example 157, N-[4-fluoro-3-(trifluoromethyl)phenyl]-3-(2-methoxy-5-{2-[(oxan-4-yl)carbamoyl]cyclopropyl}benzamido)-6-(trifluoromethyl)-1-benzothiophene-2-carboxamide]: the half-maximal effective concentration (EC50) stood at 1040 nM.

For the molecule `COc1ccc(C2CC3(C2)CN(C(=O)CN(C)C)C3)cc1C(=O)Nc1c(C(=O)Nc2ccc(F)c(C(F)(F)F)c2)sc2cc(C(F)(F)F)ccc12` [Example 206, 3-(5-(2-(dimethylglycyl)-2-azaspiro[3.3]heptan-6-yl)-2-methoxy-benzamido)-N-(4-fluoro-3-(trifluoromethyl)phenyl)-6-(trifluoromethyl) benzo[b] thiophene-2-carboxamide], the midpoint of the response, the EC50, lay at 2080 nM.

`COc1ccc(N2CCC[C@@H](NC(=O)CN(C)C)C2)cc1C(=O)Nc1c(C(=O)Nc2ccc(F)c(C(F)(F)F)c2)sc2cc(C(F)(F)F)ccc12` [Example 209, (R)-3-(5-(3-(2-(dimethylamino)acetamido)piperidin-1-yl)-2-methoxy-benzamido)-N-(4-fluoro-3-(trifluoromethyl)phenyl)-6-(trifluoromethyl) benzo[b] thiophene-2-carboxamide] yielded a half-maximal effective concentration (EC50) of 1480 nM.

Molecule `COc1ccc(C2=NOC3(CCN(C(=O)C(C)(C)CO)CC3)C2)cc1C(=O)Nc1c(C(=O)Nc2ccc(F)c(C(F)(F)F)c2)sc2cc(C(F)(F)F)ccc12` [Example 269, N-(4-fluoro-3-(trifluoromethyl)phenyl)-3-(5-(8-(3-hydroxy-2,2-dimethyl-propanoyl)-1-oxa-2,8-diazaspiro[4.5]dec-2-en-3-yl)-2-methoxy-benzamido)-6-(trifluoromethyl) benzo[b] thiophene-2-carboxamide] showed a concentration giving a half-maximal response (EC50) of 737 nM.

Consider `COc1ccc(C2CCCN(C(=O)C(=O)O)C2)cc1C(=O)Nc1c(C(=O)Nc2ccc(F)c(C(F)(F)F)c2)sc2cc(C(F)(F)F)ccc12` (centres unmarked) [Example 81, 2-(3-(3-((2-((4-fluoro-3-(trifluoromethyl)phenyl)carbamoyl)-6-(trifluoromethyl)benzo[b]thiophen-3-yl)carbamoyl)-4-methoxyphenyl)piperidin-1-yl)-2-oxoacetic acid], for which it took 203 nM to reach a half-maximal effect (EC50).
